Source: patent US20250034210A1, “DLL3 TARGETING PEPTIDES AND CONSTRUCTS THEREOF” (MARIANA ONCOLOGY INC., priority 2023, published 2025)
pKd: −log10 of the molar value. Where a SMILES comes first, the peptide text is derived from it. Bridges are numbered along the chain shown (N, C = ends). [ ]: non-standard residue; d: D form. The star is where a group is joined. ξ: configuration not given here. DOTA = O=C(O)CN1CCN(CC(=O)O)CCN(CC(=O)*)CCN(CC(=O)O)CC1; Trp(5-F) = N[C@@H](Cc1c[nH]c2ccc(F)cc12)C(=O)O; Phe(2-CF3) = N[C@@H](Cc1ccccc1C(F)(F)F)C(=O)O; Pro(trans-4-F) = O=C(O)[C@@H]1C[C@@H](F)CN1; Pro(cis-4-F) = O=C(O)[C@@H]1C[C@H](F)CN1; 1Nal = N[C@@H](Cc1cccc2ccccc12)C(=O)O; 2Nal = N[C@@H](Cc1ccc2ccccc2c1)C(=O)O; cisHyp = O=C(O)[C@@H]1C[C@H](O)CN1; Hyp = O=C(O)[C@@H]1C[C@@H](O)CN1; ξIle = CC[C@H](C)C(N)C(=O)O; Ahx = NCCCCCC(=O)O

Molecular target: T1, human DLL3 (Homo sapiens, UniProt Q9NYJ7)
T1 construct: biotin (biotinylated)
T1 sequence (Q9NYJ7 27-618): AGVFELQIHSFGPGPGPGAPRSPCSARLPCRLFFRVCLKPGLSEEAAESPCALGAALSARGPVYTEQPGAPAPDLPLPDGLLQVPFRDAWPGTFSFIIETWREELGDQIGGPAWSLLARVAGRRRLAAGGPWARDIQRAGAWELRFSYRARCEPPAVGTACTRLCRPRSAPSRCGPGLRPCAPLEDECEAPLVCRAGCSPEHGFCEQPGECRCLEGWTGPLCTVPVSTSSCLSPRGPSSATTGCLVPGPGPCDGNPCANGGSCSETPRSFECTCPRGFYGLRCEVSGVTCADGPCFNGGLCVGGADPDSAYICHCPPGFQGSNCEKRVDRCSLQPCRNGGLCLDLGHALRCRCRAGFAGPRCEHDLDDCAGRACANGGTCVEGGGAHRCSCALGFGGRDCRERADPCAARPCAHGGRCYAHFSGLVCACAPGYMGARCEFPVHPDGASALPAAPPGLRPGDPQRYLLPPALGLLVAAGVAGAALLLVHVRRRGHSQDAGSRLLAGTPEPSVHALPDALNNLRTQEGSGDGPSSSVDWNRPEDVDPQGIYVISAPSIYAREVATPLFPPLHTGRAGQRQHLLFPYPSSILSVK
Experiment: Affinity determination by Surface Plasmon Resonance (SPR), biotinylated human DLL3 immobilized on streptavidin sensor chip
Conditions: 25° C., Biacore, 1:1 binding model
Description: Affinity Determination by Surface Plasmon Resonance (SPR). SPR studies were performed on the compounds disclosed herein using the following protocol.
The binding affinity and binding kinetic parameters at 25° C. were determined using Biacore S200 or biacore 8K instrument. Biotinylated target ligand human DLL3 was immobilized on a streptavidin sensor chip. A reference surface was set up for nonspecific binding and refractive index changes. For analysis of the kinetics of interactions, varying concentrations of samples were injected at a flow rate of 100 μL/min using running buffer containing 20 mM phosphate buffer with 2.7 mM KCl, 137 mM NaCl, 0.05% Surfactant P20 and 2% DMSO. Sensorgram curves were fitted with 1:1 binding model, and affinity and kinetic parameters were obtained using Biacore Insight evaluation 4.0. software.

Row | SMILES | pKd
1 | CC[C@H](C)C(NC(=O)[C@@H](NC(=O)[C@H](Cc1c[nH]c2ccccc12)NC(=O)CCCCCNC(=O)CN1CCN(CC(=O)O)CCN(CC(=O)O)CCN(CC(=O)O)CC1)[C@@H](C)O)C(=O)N[C@H]1CSSC[C@@H](C(=O)N[C@@H](Cc2cccc3ccccc23)C(=O)N2CCC[C@H]2C(N)=O)NC(=O)[C@H](CC(=O)O)NC(=O)[C@H](Cc2cnc[nH]2)NC(=O)[C@H](Cc2c[nH]c3ccccc23)NC(=O)[C@H](CC(N)=O)NC(=O)[C@H](CC(N)=O)NC1=O (stereo partly drawn) [compound 54, DOTA-Ahx-W-T-I-C(3)-N-N-W-H-D-C(3)-(1Nal)-P-CONH2] ({DOTA-Ahx}-WT[ξIle]CNNWHDC[1Nal]P-NH2; disulfide 4-10) | 7.00 to 8.00
2 | CC[C@H](C)C(NC(=O)[C@@H](NC(=O)[C@H](Cc1c[nH]c2ccccc12)NC(=O)CCCCCNC(=O)CN1CCN(CC(=O)O)CCN(CC(=O)O)CCN(CC(=O)O)CC1)[C@@H](C)O)C(=O)N[C@H]1CSSC[C@@H](C(=O)N[C@@H](Cc2ccc3ccccc3c2)C(=O)N2CCC[C@H]2C(N)=O)NC(=O)[C@H](CC(=O)O)NC(=O)[C@H](Cc2cnc[nH]2)NC(=O)[C@H](Cc2c[nH]c3ccccc23)NC(=O)[C@H](CC(N)=O)NC(=O)[C@H](CC(N)=O)NC1=O (stereo partly drawn) [compound 55, DOTA-Ahx-W-T-I-C(3)-N-N-W-H-D-C(3)-(2Nal)-P-CONH2] ({DOTA-Ahx}-WT[ξIle]CNNWHDC[2Nal]P-NH2; disulfide 4-10) | 6.52 to 7.00
3 | CC[C@H](C)C(NC(=O)[C@@H](NC(=O)[C@H](Cc1c[nH]c2ccccc12)NC(=O)CCCCCNC(=O)CN1CCN(CC(=O)O)CCN(CC(=O)O)CCN(CC(=O)O)CC1)[C@@H](C)O)C(=O)N[C@H]1CSSC[C@@H](C(=O)N[C@@H](Cc2c[nH]c3ccccc23)C(=O)N2CCC[C@H]2C(N)=O)NC(=O)[C@H](CC(=O)O)NC(=O)[C@H](Cc2cnc[nH]2)NC(=O)[C@H](Cc2cccc3ccccc23)NC(=O)[C@H](CC(N)=O)NC(=O)[C@H](CC(N)=O)NC1=O (stereo partly drawn) [compound 56, DOTA-Ahx-W-T-I-C(3)-N-N-(1Nal)-H-D-C(3)-W-P-CONH2] ({DOTA-Ahx}-WT[ξIle]CNN[1Nal]HDCWP-NH2; disulfide 4-10) | 7.00 to 8.00
4 | CC[C@H](C)C(NC(=O)[C@@H](NC(=O)[C@H](Cc1c[nH]c2ccccc12)NC(=O)CCCCCNC(=O)CN1CCN(CC(=O)O)CCN(CC(=O)O)CCN(CC(=O)O)CC1)[C@@H](C)O)C(=O)N[C@H]1CSSC[C@@H](C(=O)N[C@@H](Cc2c[nH]c3ccccc23)C(=O)N2CCC[C@H]2C(N)=O)NC(=O)[C@H](CC(=O)O)NC(=O)[C@H](Cc2cnc[nH]2)NC(=O)[C@H](Cc2ccc3ccccc3c2)NC(=O)[C@H](CC(N)=O)NC(=O)[C@H](CC(N)=O)NC1=O (stereo partly drawn) [compound 57, DOTA-Ahx-W-T-I-C(3)-N-N-(2Nal)-H-D-C(3)-W-P-CONH2] ({DOTA-Ahx}-WT[ξIle]CNN[2Nal]HDCWP-NH2; disulfide 4-10) | 8.00 to 9.00
5 | CC[C@H](C)[C@H](NC(=O)[C@@H](NC(=O)[C@H](Cc1c[nH]c2ccc(F)cc12)NC(=O)CCCCCNC(=O)CN1CCN(CC(=O)O)CCN(CC(=O)O)CCN(CC(=O)O)CC1)[C@@H](C)O)C(=O)N[C@H]1CSSC[C@@H](C(=O)N[C@@H](Cc2c[nH]c3ccccc23)C(=O)N2CCC[C@H]2C(N)=O)NC(=O)[C@H](CC(=O)O)NC(=O)[C@H](Cc2cnc[nH]2)NC(=O)[C@H](Cc2c[nH]c3ccccc23)NC(=O)[C@H](CC(N)=O)NC(=O)[C@H](CC(N)=O)NC1=O [compound 58, DOTA-Ahx-(5Fluoro-W)-T-I-C(3)-N-N-W-H-D-C(3)-W-P-CONH2] ({DOTA-Ahx}-[Trp(5-F)]TICNNWHDCWP-NH2; disulfide 4-10) | 8.00 to 9.00
6 | CC[C@H](C)[C@H](NC(=O)[C@@H](NC(=O)[C@H](Cc1c[nH]c2ccccc12)NC(=O)CCCCCNC(=O)CN1CCN(CC(=O)O)CCN(CC(=O)O)CCN(CC(=O)O)CC1)[C@@H](C)O)C(=O)N[C@H]1CSSC[C@@H](C(=O)N[C@@H](Cc2c[nH]c3ccccc23)C(=O)N2CCC[C@H]2C(N)=O)NC(=O)[C@H](CC(=O)O)NC(=O)[C@H](Cc2cnc[nH]2)NC(=O)[C@H](Cc2c[nH]c3ccc(F)cc23)NC(=O)[C@H](CC(N)=O)NC(=O)[C@H](CC(N)=O)NC1=O [compound 59, DOTA-Ahx-W-T-I-C(3)-N-N-(5Fluoro-W)-H-D-C(3)-W-P-CONH2] ({DOTA-Ahx}-WTICNN[Trp(5-F)]HDCWP-NH2; disulfide 4-10) | 7.00 to 8.00
7 | CC[C@H](C)[C@H](NC(=O)[C@@H](NC(=O)[C@H](Cc1c[nH]c2ccccc12)NC(=O)CCCCCNC(=O)CN1CCN(CC(=O)O)CCN(CC(=O)O)CCN(CC(=O)O)CC1)[C@@H](C)O)C(=O)N[C@H]1CSSC[C@@H](C(=O)N[C@@H](Cc2c[nH]c3ccc(F)cc23)C(=O)N2CCC[C@H]2C(N)=O)NC(=O)[C@H](CC(=O)O)NC(=O)[C@H](Cc2cnc[nH]2)NC(=O)[C@H](Cc2c[nH]c3ccccc23)NC(=O)[C@H](CC(N)=O)NC(=O)[C@H](CC(N)=O)NC1=O [compound 60, DOTA-Ahx-W-T-I-C(3)-N-N-W-H-D-C(3)-(5Fluoro-W)-P-CONH2] ({DOTA-Ahx}-WTICNNWHDC[Trp(5-F)]P-NH2; disulfide 4-10) | 7.00 to 8.00
8 | C[C@@H](O)[C@H](NC(=O)[C@H](Cc1c[nH]c2ccccc12)NC(=O)CCCCCNC(=O)CN1CCN(CC(=O)O)CCN(CC(=O)O)CCN(CC(=O)O)CC1)C(=O)N[C@@H](Cc1ccccc1C(F)(F)F)C(=O)N[C@H]1CSSC[C@@H](C(=O)N[C@@H](Cc2c[nH]c3ccccc23)C(=O)N2CCC[C@H]2C(N)=O)NC(=O)[C@H](CC(=O)O)NC(=O)[C@H](Cc2cnc[nH]2)NC(=O)[C@H](Cc2c[nH]c3ccccc23)NC(=O)[C@H](CC(N)=O)NC(=O)[C@H](CC(N)=O)NC1=O [compound 65, DOTA-Ahx-W-T-(2CF3-F)-C(3)-N-N-W-H-D-C(3)-W-P-CONH2] ({DOTA-Ahx}-WT[Phe(2-CF3)]CNNWHDCWP-NH2; disulfide 4-10) | 8.00 to 9.00
9 | CC[C@H](C)[C@H](NC(=O)[C@@H](NC(=O)[C@H](Cc1c[nH]c2ccccc12)NC(=O)CCCCCNC(=O)CN1CCN(CC(=O)O)CCN(CC(=O)O)CCN(CC(=O)O)CC1)[C@@H](C)O)C(=O)N[C@H]1CSSC[C@@H](C(=O)N[C@@H](Cc2c[nH]c3ccccc23)C(=O)N2C[C@H](F)C[C@H]2C(N)=O)NC(=O)[C@H](CC(=O)O)NC(=O)[C@H](Cc2cnc[nH]2)NC(=O)[C@H](Cc2c[nH]c3ccccc23)NC(=O)[C@H](CC(N)=O)NC(=O)[C@H](CC(N)=O)NC1=O [compound 66, DOTA-Ahx-W-T-I-C(3)-N-N-W-H-D-C(3)-W-(trans4Fluoro-P)-CONH2] ({DOTA-Ahx}-WTICNNWHDCW[Pro(trans-4-F)]-NH2; disulfide 4-10) | 8.00 to 9.00
10 | CC[C@H](C)[C@H](NC(=O)[C@@H](NC(=O)[C@H](Cc1c[nH]c2ccccc12)NC(=O)CCCCCNC(=O)CN1CCN(CC(=O)O)CCN(CC(=O)O)CCN(CC(=O)O)CC1)[C@@H](C)O)C(=O)N[C@H]1CSSC[C@@H](C(=O)N[C@@H](Cc2c[nH]c3ccccc23)C(=O)N2C[C@@H](F)C[C@H]2C(N)=O)NC(=O)[C@H](CC(=O)O)NC(=O)[C@H](Cc2cnc[nH]2)NC(=O)[C@H](Cc2c[nH]c3ccccc23)NC(=O)[C@H](CC(N)=O)NC(=O)[C@H](CC(N)=O)NC1=O [compound 67, DOTA-Ahx-W-T-I-C(3)-N-N-W-H-D-C(3)-W-(Cis4Fluoro-P)-CONH2] ({DOTA-Ahx}-WTICNNWHDCW[Pro(cis-4-F)]-NH2; disulfide 4-10) | 6.52 to 7.00
11 | CC[C@H](C)[C@H](NC(=O)[C@@H](NC(=O)[C@H](Cc1c[nH]c2ccccc12)NC(=O)CCCCCNC(=O)CN1CCN(CC(=O)O)CCN(CC(=O)O)CCN(CC(=O)O)CC1)[C@@H](C)O)C(=O)N[C@H]1CSSC[C@@H](C(=O)N[C@@H](Cc2c[nH]c3ccccc23)C(=O)N2C[C@H](O)C[C@H]2C(N)=O)NC(=O)[C@H](CC(=O)O)NC(=O)[C@H](Cc2cnc[nH]2)NC(=O)[C@H](Cc2c[nH]c3ccccc23)NC(=O)[C@H](CC(N)=O)NC(=O)[C@H](CC(N)=O)NC1=O [compound 68, DOTA-Ahx-W-T-I-C(3)-N-N-W-H-D-C(3)-W-(trans4OH-P)-CONH2] ({DOTA-Ahx}-WTICNNWHDCW[Hyp]-NH2; disulfide 4-10) | 7.00 to 8.00
12 | CC[C@H](C)[C@H](NC(=O)[C@@H](NC(=O)[C@H](Cc1c[nH]c2ccccc12)NC(=O)CCCCCNC(=O)CN1CCN(CC(=O)O)CCN(CC(=O)O)CCN(CC(=O)O)CC1)[C@@H](C)O)C(=O)N[C@H]1CSSC[C@@H](C(=O)N[C@@H](Cc2c[nH]c3ccccc23)C(=O)N2C[C@@H](O)C[C@H]2C(N)=O)NC(=O)[C@H](CC(=O)O)NC(=O)[C@H](Cc2cnc[nH]2)NC(=O)[C@H](Cc2c[nH]c3ccccc23)NC(=O)[C@H](CC(N)=O)NC(=O)[C@H](CC(N)=O)NC1=O [compound 69, DOTA-Ahx-W-T-I-C(3)-N-N-W-H-D-C(3)-W-(cis4OH-P)-CONH2] ({DOTA-Ahx}-WTICNNWHDCW[cisHyp]-NH2; disulfide 4-10) | 6.52 to 7.00
